According to US11220502B2, “Sulfone compounds and derivatives for the treatment and prophylaxis of virus infection” (Hoffmann-La Roche Inc., priority 2018, dated 2022):
Read-outs that look alike come from different tables or passages of the source.

Molecular target: T1, human TLR7 (Homo sapiens, UniProt Q9NYK1)
T1 sequence (Q9NYK1 27-1049): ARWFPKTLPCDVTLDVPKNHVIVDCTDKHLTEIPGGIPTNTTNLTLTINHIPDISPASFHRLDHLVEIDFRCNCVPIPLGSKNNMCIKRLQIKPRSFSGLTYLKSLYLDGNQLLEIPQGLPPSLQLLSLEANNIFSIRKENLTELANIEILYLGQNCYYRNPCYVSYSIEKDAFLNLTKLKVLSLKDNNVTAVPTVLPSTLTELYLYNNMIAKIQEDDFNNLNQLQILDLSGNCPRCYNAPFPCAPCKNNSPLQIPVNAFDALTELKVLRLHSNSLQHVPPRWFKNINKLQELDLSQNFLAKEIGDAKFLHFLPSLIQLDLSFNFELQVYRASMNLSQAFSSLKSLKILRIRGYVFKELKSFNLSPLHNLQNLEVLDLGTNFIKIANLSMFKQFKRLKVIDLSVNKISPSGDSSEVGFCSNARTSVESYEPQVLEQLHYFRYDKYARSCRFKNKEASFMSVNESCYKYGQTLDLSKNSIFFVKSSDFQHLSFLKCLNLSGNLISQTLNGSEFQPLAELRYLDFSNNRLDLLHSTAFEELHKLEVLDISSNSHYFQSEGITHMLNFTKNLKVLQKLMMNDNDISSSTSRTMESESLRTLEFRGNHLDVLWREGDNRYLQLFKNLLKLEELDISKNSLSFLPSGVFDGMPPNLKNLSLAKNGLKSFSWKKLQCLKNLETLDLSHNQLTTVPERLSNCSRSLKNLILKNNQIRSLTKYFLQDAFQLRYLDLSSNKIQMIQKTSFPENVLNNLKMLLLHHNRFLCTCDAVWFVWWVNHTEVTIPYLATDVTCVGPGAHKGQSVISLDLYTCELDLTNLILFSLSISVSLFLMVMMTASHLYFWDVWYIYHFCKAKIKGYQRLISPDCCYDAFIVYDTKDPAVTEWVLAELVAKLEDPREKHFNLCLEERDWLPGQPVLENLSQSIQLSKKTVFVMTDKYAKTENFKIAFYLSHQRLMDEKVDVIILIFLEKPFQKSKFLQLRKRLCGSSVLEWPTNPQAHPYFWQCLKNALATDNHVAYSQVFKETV
Test: HEK293-Blue-hTLR-7 cells assay (SEAP reporter, NF-κB activation)
Assay type: cell-based
Conditions: for EC50: HEK293-Blue-hTLR-7 cells, 20 hrs incubation, SEAP reporter; for Ratio (EC50(prodrug)/EC50(active form)): calculated ratio of prodrug EC50 to EC50 of corresponding active form
Description: HEK293-Blue-hTLR-7 Cells Assay
A stable HEK293-Blue-hTLR-7 cell line was purchased from InvivoGen (Cat. #: hkb-ht1r7, San Diego, Calif., USA). These cells were designed for studying the stimulation of human TLR7 by monitoring the activation of NF-κB. A SEAP (secreted embryonic alkaline phosphatase) reporter gene was placed under the control of the IFN-β minimal promoter fused to five NF-κB and AP-1-binding sites. The SEAP was induced by activating NF-κB and AP-1 via stimulating HEK-Blue hTLR7 cells with TLR7 ligands. Therefore the reporter expression was regulated by the NF-κB promoter upon stimulation of human TLR7 for 20 hrs. The cell culture supernatant SEAP reporter activity was determined using QUANTI-Blue™ kit (Cat. #: rep-qb1, Invivogen, San Diego, Calif., USA) at a wavelength of 640 nm, a detection medium that turns purple or blue in the presence of alkaline phosphatase.
HEK293-Blue-hTLR7 cells were incubated at a density of 250,000˜450,000 cells/mL in a volume of 180 μL in a 96-well plate in Dulbecco's Modified Eagle's medium (DMEM) containing 4.5 g/L glucose, 50 U/mL penicillin, […], […], 2 mM L-glutamine, 10% (V/V) heat-inactivated fetal bovine serum for 24 hrs. Then the HEK293-Blue-hTLR-7 cells were incubated with addition of 20 μL test compound in a serial dilution in the presence of final DMSO at 1% and perform incubation under 37° C. in a CO2 incubator for 20 hrs. Then 20 μL of the supernatant from each well was incubated with 180 μL Quanti-blue substrate solution at 37° C. for 2 hrs and the absorbance was read at 620˜655 nm using a spectrophotometer. The signalling pathway that TLR7 activation leads to downstream NF-κB activation has been widely accepted, and therefore similar reporter assay was also widely used for evaluating TLR7 agonist (Tsuneyasu Kaisho and Takashi Tanaka, Trends in Immunology, Volume 29, Issue 7, July 2008, […]; Hiroaki Hemmi et al, Nature Immunology 3, 196-200 (2002)).
The Compounds and Examples of the present invention were tested in HEK293-hTLR-7 assay for their TLR7 agonism activity as described herein and results are listed in Table 1. […] The calculated ratio of EC50(prodrug)/EC50(active form) were within the range from 27.7 to about 8233.

[1] = corresponding active form, read-out: HEK293-hTLR-7 EC50 (Active form)
[2] = prodrug, read-out: HEK293-hTLR-7 EC50 (Prodrug)

Row | EC50 [1] [µM] | EC50 [2] [µM] | Ratio (EC50(prodrug)/EC50(active form)) | Structure (SMILES)
1 | 0.17 |  |  | CCS(=O)(=O)c1nc(N)c2[nH]c(=O)n(Cc3ccccc3)c2n1 [Compound 3a, 6-amino-9-benzyl-2-ethylsulfonyl-7H-purin-8-one]
2 |  | 67 | 1030.8 | CCS(=O)(=O)c1nc(N)c2c(n1)n(Cc1ccc(C)cc1)c(=O)n2C(=O)N1CCCC1 [Example 17, 6-Amino-2-ethylsulfonyl-9-(p-tolylmethyl)-7-(pyrrolidine-1-carbonyl)purin-8-one]
3 |  | 18.2 | 219.3 | CCN(C)C(=O)n1c(=O)n(Cc2ccc(Cl)cc2)c2nc(S(=O)(=O)CC)nc(N)c21 [Example 9, 6-Amino-9-[(4-chlorophenyl)methyl]-N-ethyl-2-ethylsulfonyl-N-methyl-8-oxo-purine-7-carboxamide]
4 |  | 2.3 | 27.7 | CCS(=O)(=O)c1nc(N)c2c(n1)n(Cc1ccc(Cl)cc1)c(=O)n2C(=O)N(C)C [Example 10, 6-Amino-9-[(4-chlorophenyl)methyl]-2-ethylsulfonyl-N,N-dimethyl-8-oxo-purine-7-carboxamide]
5 |  | 32.1 | 4012.5 | CCCN(C)C(=O)n1c(=O)n(Cc2ccc(OC)cc2)c2nc(S(=O)(=O)CCC)nc(N)c21 [Example 20, 6-Amino-9-[(4-methoxyphenyl)methyl]-N-methyl-8-oxo-N-propyl-2-propylsulfonyl-purine-7-carboxamide]
6 | 0.008 |  |  | CCS(=O)(=O)c1nc(N)c2[nH]c(=O)n(Cc3ccc(F)cc3)c2n1 [Compound 20a, 6-Amino-2-ethylsulfonyl-9-[(4-fluorophenyl)methyl]-7H-purin-8-one]
7 | 0.075 |  |  | CCCS(=O)(=O)c1nc(N)c2[nH]c(=O)n(Cc3ccccc3)c2n1 [Compound 1a, 6-amino-9-benzyl-2-propylsulfonyl-7H-purin-8-one]
8 |  | > 100 | >4348 | CCN(C)C(=O)n1c(=O)n(Cc2ccc(Br)cc2)c2nc(S(=O)(=O)CC)nc(N)c21 [Example 23, 6-Amino-9-[(4-bromophenyl)methyl]-N-ethyl-2-ethylsulfonyl-N-methyl-8-oxo-purine-7-carboxamide]
9 |  | 87.5 | 514.7 | CCCN(C)C(=O)n1c(=O)n(Cc2ccccc2)c2nc(S(=O)(=O)CC)nc(N)c21 [Example 4, 6-Amino-9-benzyl-2-ethylsulfonyl-N-methyl-8-oxo-N-propyl-purine-7-carboxamide]
10 |  | 3.3 | 50.8 | CCCN(C)C(=O)n1c(=O)n(Cc2ccc(C)cc2)c2nc(S(=O)(=O)CCC)nc(N)c21 [Example 12, 6-Amino-N-methyl-8-oxo-N-propyl-2-propylsulfonyl-9-(p-tolylmethyl)purine-7-carboxamide]
11 | 0.021 |  |  | CCCS(=O)(=O)c1nc(N)c2[nH]c(=O)n(Cc3ccc(Cl)cc3)c2n1 [Compound 6a, 6-amino-9-[(4-chlorophenyl)methyl]-2-propylsulfonyl-7H-purin-8-one]
12 |  | 10.1 | 121.7 | CCS(=O)(=O)c1nc(N)c2c(n1)n(Cc1ccc(Cl)cc1)c(=O)n2C(=O)N(C)CCOC [Example 11, 6-Amino-9-[(4-chlorophenyl)methyl]-2-ethylsulfonyl-N-(2-methoxyethyl)-N-methyl-8-oxo-purine-7-carboxamide]
13 | 0.06 |  |  | CCS(=O)(=O)c1nc(N)c2[nH]c(=O)n(Cc3ccc(F)cc3)c2n1 [Compound 18a, 6-Amino-2-ethylsulfonyl-9-[(4-fluorophenyl)methyl]-7H-purin-8-one]
14 | 0.065 |  |  | CCCS(=O)(=O)c1nc(N)c2[nH]c(=O)n(Cc3ccc(C)cc3)c2n1 [Compound 12a, 6-amino-2-(propylsulfonyl)-9-(p-tolylmethyl)-7H-purin-8-one]
15 |  | 5.6 | 86.2 | CCN(CC)C(=O)n1c(=O)n(Cc2ccc(C)cc2)c2nc(S(=O)(=O)CC)nc(N)c21 [Example 15, 6-Amino-N,N-diethyl-2-ethylsulfonyl-8-oxo-9-(p-tolylmethyl)purine-7-carboxamide]
16 |  | 10.9 | 145.3 | CCCS(=O)(=O)c1nc(N)c2c(n1)n(Cc1ccccc1)c(=O)n2C(=O)N(C)CC [Example 1, 6-Amino-9-benzyl-N-ethyl-N-methyl-8-oxo-2-propylsulfonyl-purine-7-carboxamide]
17 |  | 6.5 | 86.7 | CCCN(C)C(=O)n1c(=O)n(Cc2ccccc2)c2nc(S(=O)(=O)CCC)nc(N)c21 [Example 2, 6-Amino-9-benzyl-N-methyl-8-oxo-N-propyl-2-propylsulfonyl-purine-7-carboxamide]
18 |  | 104 | 614.1 | CCN(C)C(=O)n1c(=O)n(Cc2ccccc2)c2nc(S(=O)(=O)CC)nc(N)c21 [Example 3, 6-Amino-9-benzyl-N-ethyl-2-ethylsulfonyl-N-methyl-8-oxo-purine-7-carboxamide]
19 |  | 2.6 | 123.8 | CCCN(C)C(=O)n1c(=O)n(Cc2ccc(Cl)cc2)c2nc(S(=O)(=O)CCC)nc(N)c21 [Example 6, 6-Amino-9-[(4-chlorophenyl)methyl]-N-methyl-8-oxo-N-propyl-2-propylsulfonyl-purine-7-carboxamide]
20 |  | 29.7 | 174.7 | CCS(=O)(=O)c1nc(N)c2c(n1)n(Cc1ccccc1)c(=O)n2C(=O)N1CCCC1 [Example 5, 6-Amino-9-benzyl-2-ethylsulfonyl-7-(pyrrolidine-1-carbonyl)purin-8-one]
21 |  | 24.2 | 3025 | CCCS(=O)(=O)c1nc(N)c2c(n1)n(Cc1ccc(OC)cc1)c(=O)n2C(=O)N(C)CC [Example 21, 6-Amino-N-ethyl-9-[-(4-methoxyphenyl)methyl]-N-methyl-8-oxo-2-propylsulfonyl-purine-7-carboxamide]
22 |  | 3.2 | 152.4 | CCCS(=O)(=O)c1nc(N)c2c(n1)n(Cc1ccc(Cl)cc1)c(=O)n2C(=O)N(C)CC [Example 7, 6-Amino-9-[(4-chlorophenyl)methyl]-N-ethyl-N-methyl-8-oxo-2-propylsulfonyl-purine-7-carboxamide]
23 | 0.065 |  |  | CCS(=O)(=O)c1nc(N)c2[nH]c(=O)n(Cc3ccc(C)cc3)c2n1 [Compound 14a, 6-amino-2-ethylsulfonyl-9-(p-tolylmethyl)-7H-purin-8-one]
24 |  | 68.5 | 1053 | CCCN(C)C(=O)n1c(=O)n(Cc2ccc(C)cc2)c2nc(S(=O)(=O)CC)nc(N)c21 [Example 14, 6-Amino-2-ethylsulfonyl-N-methyl-8-oxo-N-propyl-9-(p-tolylmethyl)purine-7-carboxamide]
